According to publication PMC8156061, “Design, Synthesis, and Anticancer Screening for Repurposed Pyrazolo[3,4-d]pyrimidine Derivatives on Four Mammalian Cancer Cell Lines” (Molecules, 2021):

Assays:
male albino rats = assay: In vivo toxicity evaluation: serum hepatic and renal biochemical parameters in rats; set-up: species or system rat; conditions: 20 mg/kg/day orally twice weekly for 6 weeks; for ALP / ALT / AST / Albumin / Bilirubin / Cholesterol / Triglyceride: rat serum; for Overall in vivo toxicity assessment: rats, versus healthy control group
From the text: Before the assessment of the anticancer activity of the compounds, in the present study, we examined their toxicity in vivo on normal tissues.
Male albino rats (150 g average weight) were purchased from the animal house of the Institute of Graduate Studies and Research, Alexandria University, Egypt. The animals were housed under standardized environmental conditions, fed with a standard diet and water, and left to acclimate to the environment for one week prior to inclusion in the experiment. All of the animal experiments were conducted in accordance with the guidelines for the care and use of laboratory animals of the National Institutes of Health (NIH 1985). The experimental procedures employed were ethically reviewed and approved by the Institutional Animal Care and Use Committee (IACUC) of Alexandria University (Ethical approval number of the study: AU14-200922-1-8A) and “declaration of Helsinki”. Four groups of rats were administered 20 mg/kg/day of compounds 5, 6, and 7 orally twice weekly for 6 weeks. Liver enzymes and other liver biomarkers together with creatinine and urea were measured (Table 1).
The collected blood was allowed to clot, the serum was separated at 2000× g, and the biochemical markers of hepatic damage, including serum ALT, AST [33], ALP [34], albumin [35], total bilirubin [36], TG [37], urea, creatinine, and total cholesterol, were estimated according to previously reported methods. These parameters were determined using available commercial kits (ARE) following the instructions of the manufacturer.

HT1080 cells = assay: Cell viability, crystal violet staining, HT1080; type: cell-based, human; conditions: for first concentration with significant reduction in cell viability / IC50: HT1080, 48 h; for first concentration with significant reduction in cell viability: versus control; for IC50: Homo sapiens, HT-1080
Experimental: (§1) A (4,5-dimethylthiazol-2-yl)-2,5-diphenyltetrazolium) MTT assay was used for the determination of the cytotoxic effects of three compounds (5, 6, and 7) in vitro (Figure 9). Hela, HT1080, Caco-2, and A549 cells were treated with various concentrations of the compounds employed in the current study (0, 1, 10, 50, 100, 500 µM) for 48 h.
(§2) Figure 9 Normalised percentage cell viability inhibition of compounds 5 and 7, measured by three independent MTT assays in A549 and Caco-2 cell lines and by three independent experiments with crystal violet staining in Hela and HT1080 cell lines. Cells were treated with different concentrations (from 1 and up to 500 µM) of the compounds for 48 h, * = first concentration significant reduction in cell viability in comparison to the control.
(§3) Human fibrosarcoma (HT1080), cervical cancer (Hela), colorectal cancer (Caco-2), and human lung cancer cell lines (A549) were purchased from […] (ECACC, Salisbury, UK). Cervical cancer cells (Hela) and fibrosarcoma cells (HT-1080) were maintained in a RPMI medium supplemented with 10% foetal bovine serum (FBS) and were expanded at 37 °C and 5% CO2. Caco-2 and A549 cells were grown in Dulbecco’s modified eagle medium (DMEM)-high glucose (biowest, Riverside, MO, USA) enriched with (10% v/v) (foetal bovine serum) FBS (biowest, Riverside, MO, USA) and antibiotics (100 U/mL penicillin, 100 μg mL streptomycin) (Lonza, Basel, Switzerland). Cells were maintained at 37 °C in an incubator with 5% CO2 atmosphere. Part of the experiments were carried out in CERRMA (Center of Excellence for Research in Regenerative Medicine and its Applications), Faculty of Medicine, Alexandria University.
(§4) Cervical Hela and HT-1080 cells (2 × 10^4 per well) were seeded in 96-well tissue culture plates in 100 μL cell culture medium. Cells were incubated for 48 h in triplicates with the compounds of interest. The cytotoxic effect was assessed by crystal violet staining and measured at 595 nm. To normalize cell viability values each plate included a triplicate of cells treated with DMSO, the vehicle of the compound to calculate 100% viable cells. At the same time, a triplicate of cells was simulated with a cytotoxic combination (200 ng/mL TNF, 200 ng/mL CD95L, 200 ng/mL TRAIL, 25 µg/mL CHX, 1% (w/v) sodium azide) to elucidate maximal cell death, and thus 0% viability. All other viability values were normalized depending on the averages of these triplicates and evaluated by the Graph Pad Prism 5 software (La Jolla, CA, USA).

Hela cells = assay: Cell viability, crystal violet staining, Hela; type: cell-based, human; conditions: 48 h; for first concentration with significant reduction in cell viability: versus control; for IC50: Homo sapiens, HeLa
Experimental: as §1, §2, §3, §4

Caco-2 cells = assay: Cell viability, MTT assay, Caco-2; type: cell-based, human; conditions: for IC50: Homo sapiens
Experimental: as §1, §2, §3
(§5) The cell viability of A549 and Caco-2 cells was measured using MTT assays. Cells were incubated for 48 h in triplicates with the compounds of interest. […] Cells were seeded in 96-well plates at a density of 5 × 10^3 cells/well and were maintained in complete media. After adherence for 48 h, cells were treated with different concentrations of newly synthesized compounds ranging from […]. The plates were incubated at 5% CO2 and 37 °C. After 48 h, the medium was discarded, and cells were incubated with 100 μL MTT (Serva, Heidelberg, Germany) solution (0.5 mg/mL) for 3 h at 5% CO2 and 37 °C. Finally, the reagent was discarded and replaced with 100 μL DMSO. The optical density was measured at a wavelength of 570 nm (Tecan, Infinite F50, Magellan reader control and data analysis software, Mennedov, Switzerland). The percentage cell viability data were obtained by normalization of the optical density (OD) values for all groups to the OD of the control group.

A549 cells [1] = assay: Cell viability, MTT assay, A549; type: cell-based, human; conditions: for first concentration with significant reduction in cell viability / IC50: A549, 48 h; for first concentration with significant reduction in cell viability: versus control; for IC50: Homo sapiens
Experimental: as §1, §2, §3, §5

BCR-ABL tyrosine kinase = tested on: BCR-ABL tyrosine kinase; set-up: method as in earlier work; conditions: literature statement; cited from earlier work
A549 cells [2] = assay: Apoptosis assay, annexin V flow cytometry; type: cell-based, human
Experimental: (§6) In order to exclude apoptotic effects as a mechanism for the observed anticancer activity of the compounds and according to the in silico results, induction of apoptosis by compound 7 was examined using an annexin V flow cytometry assay (Figure 10a).
(§7) Figure 10 (a) Apoptosis analysis in A549 cells following treatment of cells with compound 7 at IC50 concentration. Flowcytometry was conducted using Alexa Fluor 488 annexin V conjugate. […] (b) Western blot analysis showing cleaved caspase-3 protein expression level. […] (c) Proliferation analysis (Ki67) in A549 cells following treatment cells with compound 7 at IC50 concentration. The analysis was done using flow cytometry and the Ki-67 FITC antibody.
For evaluating cell apoptosis, cells were plated in 6-well plates at a density of 2 × 10^4 cells per well. After incubation for 24 h, 70% confluency is reached. Cells were then labelled using the FITC Annexin V apoptosis detection kit I (BD Pharminogen, San Diego, CA, USA) according to manufacturer’s instructions (Cell Signaling Technology; Flow Cytometry, Methanol Permeabilization Protocol) and analysed by using BD FACS Calibur flow cytometry and Cell Quest™ software.

[3] = tested on: cleaved caspase-3 protein; assay: Western blot of cleaved caspase-3 protein expression; type: cell-based; conditions: IC50 concentration, versus untreated cells
Experimental: as §6, §7
A western blot assay was carried out to examine cleaved caspase-3 protein expression levels following the different treatments with different concentrations of the compound that were employed in the current study. Cells (5 × 10^5 cells/well) were seeded in 12-well plates and were induced the next day with the compounds of interest for 48 h. […] The proteins of interest were detected with a suitable primary antibody (Anti-Caspase-3, 17,19 kD, Rabbit polyclonal ≠ 9661, from Cell Signaling Technology, Beverly, MA, USA) and horseradish peroxidase conjugated secondary antibodies (Dako, Glostrup, Denmark and Cell Signaling Technology, Beverly, MA, USA).

[4] = tested on: Ki67 expression in A549 cells; assay: Proliferation assay, Ki67 expression by flow cytometry; type: cell-based, human; conditions: A549, IC50 concentration, 48 h; control cells 85.61%
Experimental: as §7
Ki67 expression was determined using a flow cytometry assay. […] The percentage of cells labelled using Ki67 antibody in the control cells was 85.61%, whereas those labelled with the same antibody following treatment with compound 7 was 68.06%.
For evaluating the proliferation status of cells, cells were plated in 6-well plates at a density of 2 × 10^4 cells per well for the cell proliferation assay. After incubation for 24 h, 70% confluency is reached.

Row | SMILES | ALP (male albino rats) [U/L] | ALT (male albino rats) [U/L] | AST (male albino rats) [U/L] | Albumin (male albino rats) [g/dL] | Bilirubin (male albino rats) [mg/dL] | Cholesterol (male albino rats) [mg/dL] | Triglyceride (male albino rats) [mg/dL] | Overall in vivo toxicity assessment (male albino rats) | first concentration with significant reduction in cell viability (HT1080 cells) [µM] | IC50 (HT1080 cells) [µM] | first concentration with significant reduction in cell viability (Hela cells; Hela) [µM] | IC50 (Hela cells) [µM] | IC50 (Caco-2 cells; Caco-2, 48 h) [µM] | first concentration with significant reduction in cell viability (A549 cells [1]) [µM] | IC50 (A549 cells [1]) [µM] | other results
1 | COc1ccc(C=NNc2ncnc3c2cnn3-c2ccccc2)cc1 [Compound 5, 2-(4-Methoxybenzylidene)-1-(1-phenyl-1H-pyrazolo[3,4-d]pyrimidin-4-yl)hydrazine] | 2.1 ± 0.52 | 43 ± 5.2 | 102 ± 8.7 | 4.4 ± 0.37 | 0.11 ± 0.12 | 71 ± 4.8 | 72 ± 8.6 | safe compounds comparable to the healthy control group | 50 | 96.2 | 50 | 74.8 | 76.9 | 50 | 148 | –
2 | COc1ccc(/C=N/Nc2ncnc3c2cnn3-c2ccccc2)cc1OC [Compound 6] | 2 ± 0.12 | 44 ± 5.7 | 100 ± 9.8 | 4.6 ± 1.8 | 0.12 ± 0.12 | 69 ± 7.8 | 75 ± 6.5 | safe compounds comparable to the healthy control group | – | – | – | – | – | – | – | effect on cell viability (HT1080 cells; HT1080, up to 500 µM, 48 h, data not shown): did not show any significant decrease in the cell viability; effect on cell viability (Hela cells; Hela, up to 500 µM, data not shown): did not show any significant decrease in the cell viability; effect on cell viability (Caco-2 cells; Caco-2, up to 500 µM, 48 h, data not shown): did not show any significant decrease in the cell viability; effect on cell viability (A549 cells [1]; A549, up to 500 µM, 48 h, data not shown): did not show any significant decrease in the cell viability; inhibition of BCR-ABL tyrosine kinase (BCR-ABL tyrosine kinase): capable of inhibiting BCR-ABL tyrosine kinase
3 | COc1cc(C=NNc2ncnc3c2cnn3-c2ccccc2)cc(OC)c1OC [Compound 7, 2-(3,4,5-Trimethoxybenzylidene)-1-(1-phenyl-1H-pyrazolo[3,4-d]pyrimidin4yl)hydrazine] | 1.8 ± 0.88 | 42 ± 7.2 | 103 ± 8.8 | 4.6 ± 1.1 | 0.11 ± 0.32 | 71 ± 5.8 | 77 ± 7.5 | safe compounds comparable to the healthy control group | 25 | 43.8 | 12.5 | 17.5 | 73.1 | 1 | 68.8 | first concentration with significant reduction in cell viability (Caco-2 cells; Caco-2, 48 h, versus control): 1 µM; effect on viability of cells through apoptosis (A549 cells [2]; A549, 24 h incubation, versus untreated group): no significant effect; percentage gating in the lower left quadrant (annexin V) (A549 cells [2]; A549, IC50 concentration, control untreated 97.8): 97.58%; change in cleaved caspase-3 protein expression level [3]: no significant change; percentage of cells labelled using Ki67 antibody [4]: 68.06%
